Here are results for 24 compounds from patent publication US10730878B2, “Fused quinoline compounds as PI3K/mTOR inhibitors” (ADVENCHEN PHARMACEUTICALS, LLC, priority 2015, dated 2020).

One experiment relates to tumor cell lines. Description: inhibition on tumor cell lines (drawing 11). In kind it is cell-based. Particulars: head is a drawing, cell line and unit not readable; for tumor cell line inhibition, first column under head drawing 11: first of three columns; for tumor cell line inhibition, second column under head drawing 11: second of three columns; for tumor cell line inhibition, third column under head drawing 11: third of three columns. Set-up: tumor cell line inhibition, first column under head drawing 11 / tumor cell line inhibition, third column under head drawing 11: unit not given here. The procedure: The following compounds or a pharmaceutically acceptable salt thereof, but not limited, can also be prepared similarly according to the methods described in Scheme I-Scheme II. They are also tested for the inhibitions on mTor or pi3k kinases, or tumor cell lines.

Another experiment addresses T1, mTor (Homo sapiens, UniProt P42345).
T1 construct: purchased Millipore/Merck KGA of Europe (panel screening service)
Nature of the experiment: mTor kinase inhibition, % activity at 0.03 μM (kinases panel screening). In kind it is biochemical. Particulars: 0.03 μM compound. The text has this:
In vitro kinase inhibition activities included Pi3k and mTor activities can be tested with Millipore/Merck KGA of Europe in their kinases panel screening. Animal antitumor activity testing can be conducted by various cancer xenograft models for a compound of formula I. […]

For `N#CC1(c2ccc(-n3c4c5cc(-c6cnc7ccccc7c6)ccc5ncc4n4cnnc34)cc2)CCCC1` [1-{4-[4-(quinolin-3-yl)-8,11,13,14,16-pentaazatetracyclo-[8.6.0.0^2,^7.0^11,^1^5]hexadeca-1(10),2,4,6,8,12,14-heptaen-16-yl]phenyl}cyclopentane-1-carbonitrile], in the experiment with tumor cell lines, the “tumor cell line inhibition, first column under head drawing 11” value was 3.8; the “tumor cell line inhibition, second column under head drawing 11” value worked out at 3.4; the “tumor cell line inhibition, third column under head drawing 11” value came out at 27. Take `Cc1nnc2n(-c3ccc(C4(C#N)CC4)cc3)c3c4cc(-c5cccnc5)ccc4ncc3n12` [1-{4-[12-methyl-4-(pyridin-3-yl)-8,11,13,14,16-pentaazatetracyclo[8.6.0.0^2,^7.0^11,^1^5]-hexadeca-1(10),2,4,6,8,12,14-heptaen-16-yl]phenyl}cyclopropane-1-carbonitrile]: in the experiment on tumor cell lines, the “tumor cell line inhibition, first column under head drawing 11” value came to 1; the “tumor cell line inhibition, second column under head drawing 11” value is listed as 0.3; the “tumor cell line inhibition, third column under head drawing 11” value is reported as 0.9. The like results for `Cc1nnc2n(-c3ccc(C4(C#N)CCCC4)cc3)c3c4cc(-c5cccnc5)ccc4ncc3n12` [1-{4-[12-methyl-4-(pyridin-3-yl)-8,11,13,14,16-pentaazatetracyclo[8.6.0.0^2,^7.0^11,^1^5]hexadeca-1(10),2,4,6,8,12,14-heptaen-16-yl]phenyl}cyclopentane-1-carbonitrile] were, in that order, 36, 38 and 70. As for `CC(C)(C)c1ccc(-n2c3c4cc(-c5cncnc5)ccc4ncc3n3cnnc23)cc1` [5-pyrimidine; H; CH3, CH3; CH3, 16-(4-tert-butylphenyl)-4-(pyrimidin-5-yl)-8,11,13,14,16-pentaazatetracyclo[8.6.0.0^2,^7.0^11,^1^5]-hexadeca-1(10), 2,4,6,8,12,14-heptaene], the “mTor % activity @0.03 μM” value at mTor is reported as 39%. For the compound `CC(C)(C#N)c1ccc(-n2c3c4cc(-c5cncnc5)ccc4ncc3n3cnnc23)cc1` [5-pyrimidine; H; CH3, CH3; CN, 2-methyl-2-{4-[4-(pyrimidin-5-yl)-8,11,13,14,16-pentaazatetracyclo[8.6.0.0^2,^7.0^11,^1^5]hexadeca-1(10),2,4,6,8,12,14-heptaen-16-yl]phenyl}propanenitrile], the “mTor % activity @0.03 μM” value at mTor came out at 64%. On the same count and under the same terms, under `C#CC(C)(C)c1ccc(-n2c3c4cc(-c5ccc(OC)nc5)ccc4ncc3n3c(CC)nnc23)cc1` [12-ethyl-4-(6-methoxypyridin-3-yl)-16-[4-(2-methylbut-3-yn-2-yl)phenyl]-8,11,13,14,16-pentaazatetracyclo[8.6.0.0^2,^7.0^11,^1^5]hexadeca-1(10),2,4,6,8,12,14-heptaene] stands 69%; under `CC(C)(C)c1ccc(-n2c3c4cc(-c5cnc6[nH]ccc6c5)ccc4ncc3n3cnnc23)cc1` [16-(4-tert-butylphenyl)-4-{1H-pyrrolo[2,3-b]pyridin-5-yl}-8,11,13,14,16-pentaazatetracyclo-[8.6.0.0^2,^7.0^11,^1^5]hexadeca-1(10), 2,4,6,8,12,14-heptaene], −15%. For `Cc1nnc2n(-c3ccc(C(C)(C)C)cc3)c3c4cc(-c5cnc6[nH]ccc6c5)ccc4ncc3n12` [16-(4-tert-butylphenyl)-12-methyl-4-{1H-pyrrolo[2,3-b]pyridin-5-yl}-8,11,13,14,16-pentaaza-tetracyclo[8.6.0.0^2,^7.0^11,^1^5]hexadeca-1(10), 2,4,6,8,12,14-heptaene], the “mTor % activity @0.03 μM” value on mTor is listed as 54%. The same measure, in the same setting: under `CC(=O)Nc1ccc(-c2ccc3ncc4c(c3c2)n(-c2ccc(C(C)(C)C#N)cc2)c2nncn42)cn1` [N-(5-{16-[4-(1-cyano-1-methylethyl)phenyl]-8,11,13,14,16-pentaazatetracyclo-[8.6.0.0^2,^7.0^11,^1^5]hexadeca-1(10),2,4,6,8,12,14-heptaen-4-yl}pyridin-2-yl)acetamide] stands −10%. Turning to `CC(=O)Nc1ccc(-c2ccc3ncc4c(c3c2)n(-c2ccc(C(C)(C)C#N)cc2)c2nnc(C)n42)cn1` [N-(5-{16-[4-(1-cyano-1-methylethyl)phenyl]-12-methyl-8,11,13,14,16-pentaazatetracyclo-[8.6.0.0^2,^7.0^11,^1^5]hexadeca-1(10),2,4,6,8,12,14-heptaen-4-yl}pyridin-2-yl)acetamide], the “mTor % activity @0.03 μM” value at mTor is reported as 74%. Still for that read-out and setting: as for `CCc1nnc2n(-c3ccc(C(C)(C)C#N)cc3)c3c4cc(-c5ccc(NC(C)=O)nc5)ccc4ncc3n12` [N-(5-{(16-[4-(1-cyano-1-methylethyl)phenyl]-12-ethyl-8,11,13,14,16-pentaazatetracyclo-[8.6.0.0^2,^7.0^11,^1^5]hexadeca-1(10), 2,4,6,8,12,14-heptaen-4-yl)}pyridin-2-yl)acetamide], the figure is 72%; as for `CC(=O)Nc1ccc(-c2ccc3ncc4c(c3c2)n(-c2ccc(C(C)(C)C)cc2)c2nncn42)cn1` [N-{5-[16-(4-tert-butylphenyl)-8,11,13,14,16-pentaazatetracyclo[8.6.0.0^2,^7.0^11,^1^5]hexadeca-1(10),2,4,6,8,12,14-heptaen-4-yl]pyridin-2-yl}acetamide], −6%. The same measure, in the same setting: as for `CC(=O)Nc1ccc(-c2ccc3ncc4c(c3c2)n(-c2ccc(C(C)(C)C)cc2)c2nnc(C)n42)cn1` [N-{5-[16-(4-tert-butylphenyl)-12-methyl-8,11,13,14,16-pentaazatetracyclo[8.6.0.0^2,^7.0^11,^1^5]-hexadeca-1(10), 2,4,6,8,12,14-heptaen-4-yl]pyridin-2-yl}acetamide], the figure is 58%; as for “N-(5-{16-[4-(1-cyano-1-methylethyl)phenyl]-8,11,13,14,16-pentaazatetracyclo[8.6.0.0^2,^7.0^11,^1^5]-hexadeca-1(10),2,4,6,8,12,14-heptaen-4-yl)}pyridin-2-yl)-2-(pyrrolidin-1-yl)acetamide”, −2%; as for “N-(5-{16-[4-(1-cyano-1-methylethyl)phenyl]-8,11,13,14,16-pentaazatetracyclo[8.6.0.0^2,^7.0^11,^1^5]-hexadeca-1(10), 2,4,6,8,12,14-heptaen-4-yl)}pyridin-2-yl)-2-(4-hydroxypiperidin-1-yl)acetamide”, 17%. On the same count and under the same terms, as for “N-(5-{16-[4-(1-cyano-1-methylethyl)phenyl]-8,11,13,14,16-pentaazatetracyclo[8.6.0.0^2,^7.0^11,^1^5]-hexadeca-1(10), 2,4,6,8,12,14-heptaen-4-yl)}pyridin-2-yl)-2-(4-methylpiperazin-1-yl)acetamide”, the figure is 8%; as for “N-(5-{16-[4-(1-cyano-1-methylethyl)phenyl]-8,11,13,14,16-pentaazatetracyclo[8.6.0.0^2,^7.0^11,^1^5]-hexadeca-1(10), 2,4,6,8,12,14-heptaen-4-yl)}pyridin-2-yl)-2-(4-oxopiperidin-1-yl)acetamide”, 54%; as for “N-(5-{16-[4-(1-cyano-1-methylethyl)phenyl]-8,11,13,14,16-pentaazatetracyclo[8.6.0.0^2,^7.0^11,^1^5]-hexadeca-1(10), 2,4,6,8,12,14-heptaen-4-yl)}pyridin-2-yl)-2-(dimethylamino)acetamide”, 0%. For the compound “N-(5-{16-[4-(1-cyano-1-methylethyl)phenyl]-8,11,13,14,16-pentaazatetracyclo[8.6.0.0^2,^7.0^11,^1^5]-hexadeca-1(10), 2,4,6,8,12,14-heptaen-4-yl)}pyridin-2-yl)-2-(morpholin-4-yl)acetamide”, the “mTor % activity @0.03 μM” value on mTor came to 72%. For the compound “N-(5-{16-[4-(1-cyano-1-methylethyl)phenyl]-8,11,13,14,16-pentaazatetracyclo[8.6.0.0^2,^7.0^11,^1^5]-hexadeca-1(10), 2,4,6,8,12,14-heptaen-4-yl)}pyridin-2-yl)-2-(thian-4-ylamino)acetamide”, at mTor, the “mTor % activity @0.03 μM” value was 103%. On to “N-{5-[16-(4-tert-butylphenyl)-8,11,13,14,16-pentaazatetracyclo[8.6.0.0^2,^7.0^11,^1^5]-hexadeca-1(10),2,4,6,8,12,14-heptaen-4-yl]pyridin-2-yl}-2-(methylamino)acetamide”, for which, at mTor, the “mTor % activity @0.03 μM” value was 8%.

For “N-{5-[16-(4-tert-butylphenyl)-12-ethyl-8,11,13,14,16-pentaazatetracyclo[8.6.0.0^2,^7.0^11,^1^5]-hexadeca-1(10), 2,4,6,8,12,14-heptaen-4-yl]pyridin-2-yl}-2-(methylamino)acetamide”, the “mTor % activity @0.03 μM” value on mTor stood at 40%. Still for that read-out and setting: as for “N-{5-[16-(4-tert-butylphenyl)-12-ethyl-8,11,13,14,16-pentaazatetracyclo[8.6.0.0^2,^7.0^11,^1^5]-hexadeca-1(10), 2,4,6,8,12,14-heptaen-4-yl]pyridin-2-yl}-2-(pyrrolidin-1-yl)acetamide”, the figure is 91%. On to “N-{5-[16-(4-tert-butylphenyl)-12-ethyl-8,11,13,14,16-pentaazatetracyclo[8.6.0.0^2,^7.0^11,^1^5]-hexadeca-(10),2,4,6,8,12,14-heptaen-4-yl]pyridin-2-yl}-2-(morpholin-4-yl)acetamide”, for which the “mTor % activity @0.03 μM” value at mTor came to 92%.
